Laboratory results reported in PubChem BioAssay (NCI).
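Exposure lasted 48 hours, with cells grown in 96-well plates and compounds tested at five concentrations. TGI marks complete inhibition of growth.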

How the values were obtained:
Experiment in all cases: inhibition of tumour cell growth, NCI panel, 48 h
MDA-MB-435 = test system: MDA-MB-435
SK-OV-3 ovarian = test system: SK-OV-3 ovarian
MCF7 breast = test system: MCF7 breast
786-0 renal = test system: 786-0 renal
PC-3 prostate = test system: PC-3 prostate
MALME-3M melanoma = test system: MALME-3M melanoma
IGROV1 ovarian = test system: IGROV1 ovarian
U251 CNS = test system: U251 CNS
M14 melanoma = test system: M14 melanoma
OVCAR-4 ovarian = test system: OVCAR-4 ovarian
LOX IMVI melanoma = test system: LOX IMVI melanoma
NCI/ADR-RES ovarian = test system: NCI/ADR-RES ovarian
TK-10 renal = test system: TK-10 renal
COLO 205 colon = test system: COLO 205 colon
SNB-19 CNS = test system: SNB-19 CNS
SNB-75 CNS = test system: SNB-75 CNS
SK-MEL-28 melanoma = test system: SK-MEL-28 melanoma
SR leukemia = test system: SR leukemia
NCI-H23 lung = test system: NCI-H23 lung
K-562 leukemia = test system: K-562 leukemia
MOLT-4 leukemia = test system: MOLT-4 leukemia
DU-145 prostate = test system: DU-145 prostate
HCC-2998 colon = test system: HCC-2998 colon
RPMI-8226 leukemia = test system: RPMI-8226 leukemia
MDA-MB-231 breast = test system: MDA-MB-231 breast
NCI-H226 lung = test system: NCI-H226 lung
OVCAR-3 ovarian = test system: OVCAR-3 ovarian
NCI-H460 lung = test system: NCI-H460 lung
OVCAR-5 ovarian = test system: OVCAR-5 ovarian
RXF 393 renal = test system: RXF 393 renal
KM12 colon = test system: KM12 colon
SN12C renal = test system: SN12C renal
HS 578T breast = test system: HS 578T breast
UO-31 renal = test system: UO-31 renal
ACHN renal = test system: ACHN renal
MDA-N = test system: MDA-N
SF-295 CNS = test system: SF-295 CNS
EKVX NSCLC = test system: EKVX NSCLC
CAKI-1 renal = test system: CAKI-1 renal
SW-620 colon = test system: SW-620 colon
CCRF-CEM leukemia = test system: CCRF-CEM leukemia
SF-539 CNS = test system: SF-539 CNS
OVCAR-8 ovarian = test system: OVCAR-8 ovarian
T-47D breast = test system: T-47D breast
SF-268 CNS = test system: SF-268 CNS
NCI-H522 lung = test system: NCI-H522 lung
UACC-257 melanoma = test system: UACC-257 melanoma
UACC-62 melanoma = test system: UACC-62 melanoma
HT29 colon = test system: HT29 colon
HL-60(TB) leukemia = test system: HL-60(TB) leukemia
HOP-62 NSCLC = test system: HOP-62 NSCLC
BT-549 breast = test system: BT-549 breast
HCT-15 colon = test system: HCT-15 colon
SK-MEL-5 melanoma = test system: SK-MEL-5 melanoma
A549 NSCLC = test system: A549 NSCLC
HOP-92 NSCLC = test system: HOP-92 NSCLC
HCT-116 colon = test system: HCT-116 colon
A498 renal = test system: A498 renal
SK-MEL-2 melanoma = test system: SK-MEL-2 melanoma

COC(=O)[C@@]12CN(C)[C@@H](C(C)(C)C)N1C(=O)OC2c1ccccc1 (some centres not stated)
TGI (MDA-MB-435): > 100 µM | TGI (SK-OV-3 ovarian): > 100 µM | TGI (MCF7 breast): > 100 µM | TGI (786-0 renal): > 100 µM | TGI (PC-3 prostate): > 100 µM | TGI (MALME-3M melanoma): > 100 µM | TGI (IGROV1 ovarian): > 100 µM | TGI (U251 CNS): > 100 µM | TGI (M14 melanoma): > 100 µM | TGI (OVCAR-4 ovarian): > 100 µM | TGI (LOX IMVI melanoma): > 100 µM | TGI (NCI/ADR-RES ovarian): > 100 µM | TGI (TK-10 renal): > 100 µM | TGI (COLO 205 colon): > 100 µM | TGI (SNB-19 CNS): > 100 µM | TGI (SNB-75 CNS): > 100 µM | TGI (SK-MEL-28 melanoma): > 100 µM | TGI (SR leukemia): > 100 µM | TGI (NCI-H23 lung): > 100 µM | TGI (K-562 leukemia): > 100 µM | TGI (MOLT-4 leukemia): > 100 µM | TGI (DU-145 prostate): > 100 µM | TGI (HCC-2998 colon): > 100 µM | TGI (RPMI-8226 leukemia): > 100 µM | TGI (MDA-MB-231 breast): > 100 µM | TGI (NCI-H226 lung): > 100 µM | TGI (OVCAR-3 ovarian): > 100 µM | TGI (NCI-H460 lung): > 100 µM | TGI (OVCAR-5 ovarian): > 100 µM | TGI (RXF 393 renal): > 100 µM | TGI (KM12 colon): > 100 µM | TGI (SN12C renal): > 100 µM | TGI (HS 578T breast): > 100 µM | TGI (UO-31 renal): > 100 µM | TGI (ACHN renal): > 100 µM | TGI (MDA-N): > 100 µM | TGI (SF-295 CNS): > 100 µM | TGI (EKVX NSCLC): > 100 µM | TGI (CAKI-1 renal): > 100 µM | TGI (SW-620 colon): > 100 µM | TGI (CCRF-CEM leukemia): > 100 µM | TGI (SF-539 CNS): > 100 µM | TGI (OVCAR-8 ovarian): > 100 µM | TGI (T-47D breast): > 100 µM | TGI (SF-268 CNS): > 100 µM | TGI (NCI-H522 lung): > 100 µM | TGI (UACC-257 melanoma): > 100 µM | TGI (UACC-62 melanoma): > 100 µM | TGI (HT29 colon): > 100 µM | TGI (HL-60(TB) leukemia): > 100 µM | TGI (HOP-62 NSCLC): > 100 µM | TGI (BT-549 breast): > 100 µM | TGI (HCT-15 colon): > 100 µM | TGI (SK-MEL-5 melanoma): > 100 µM | TGI (A549 NSCLC): > 100 µM | TGI (HOP-92 NSCLC): > 100 µM

COC(=O)/C=C\[C@H]1[C@H](C)N1S(=O)(=O)c1ccc(C)cc1 (some centres not stated)
TGI (MDA-MB-435): > 100 µM | TGI (SK-OV-3 ovarian): > 100 µM | TGI (MCF7 breast): > 100 µM | TGI (786-0 renal): > 100 µM | TGI (PC-3 prostate): > 100 µM | TGI (MALME-3M melanoma): > 100 µM | TGI (IGROV1 ovarian): > 100 µM | TGI (U251 CNS): > 100 µM | TGI (M14 melanoma): > 100 µM | TGI (OVCAR-4 ovarian): > 100 µM | TGI (LOX IMVI melanoma): > 100 µM | TGI (NCI/ADR-RES ovarian): > 100 µM | TGI (TK-10 renal): > 100 µM | TGI (COLO 205 colon): > 100 µM | TGI (SNB-19 CNS): > 100 µM | TGI (SK-MEL-28 melanoma): > 100 µM | TGI (SR leukemia): > 100 µM | TGI (NCI-H23 lung): > 100 µM | TGI (K-562 leukemia): > 100 µM | TGI (MOLT-4 leukemia): > 100 µM | TGI (DU-145 prostate): > 100 µM | TGI (HCC-2998 colon): > 100 µM | TGI (RPMI-8226 leukemia): > 100 µM | TGI (MDA-MB-231 breast): > 100 µM | TGI (NCI-H226 lung): > 100 µM | TGI (OVCAR-3 ovarian): > 100 µM | TGI (HCT-116 colon): > 100 µM | TGI (NCI-H460 lung): > 100 µM | TGI (OVCAR-5 ovarian): > 100 µM | TGI (RXF 393 renal): > 100 µM | TGI (KM12 colon): > 100 µM | TGI (SN12C renal): > 100 µM | TGI (HS 578T breast): > 100 µM | TGI (ACHN renal): > 100 µM | TGI (MDA-N): > 100 µM | TGI (SF-295 CNS): > 100 µM | TGI (EKVX NSCLC): > 100 µM | TGI (CAKI-1 renal): > 100 µM | TGI (SW-620 colon): > 100 µM | TGI (CCRF-CEM leukemia): > 100 µM | TGI (A498 renal): > 100 µM | TGI (SF-539 CNS): > 100 µM | TGI (OVCAR-8 ovarian): > 100 µM | TGI (T-47D breast): > 100 µM | TGI (SF-268 CNS): > 100 µM | TGI (NCI-H522 lung): 46 µM | TGI (UACC-257 melanoma): > 100 µM | TGI (UACC-62 melanoma): > 100 µM | TGI (HT29 colon): > 100 µM | TGI (SK-MEL-2 melanoma): > 100 µM | TGI (HL-60(TB) leukemia): > 100 µM | TGI (HOP-62 NSCLC): > 100 µM | TGI (BT-549 breast): > 100 µM | TGI (HCT-15 colon): > 100 µM | TGI (SK-MEL-5 melanoma): > 100 µM | TGI (A549 NSCLC): > 100 µM
